# Reference: patent US20050113283A1, “Methods of treating conditions associated with an EDG-4 receptor” (priority 2002, published 2005)
# Key:
# Edg-2 = target: T1, Edg-2 (Homo sapiens, UniProt Q92633); test: Calcium mobilization assay (FLIPR), HTC cells expressing Edg 2; format: cell-based; conditions: for EC50: agonist
# T1 construct: expressed in transfected cells; host or cells: HTC rat hepatoma cells (from the earlier reading)
# Edg-3 = target: T2, Edg-3 (Homo sapiens, UniProt Q99500); test: Calcium mobilization assay (FLIPR), HTC cells expressing Edg 3; format: cell-based; conditions: for EC50: agonist
# T2 construct: expressed in transfected cells; host or cells: HTC rat hepatoma cells (from the earlier reading)
# Edg-1 = target: T3, Edg-1 (Homo sapiens, UniProt P21453); test: Calcium mobilization assay (FLIPR), HTC cells expressing Edg 1; format: cell-based; conditions: for EC50: agonist
# T3 construct: expressed in transfected cells; host or cells: HTC rat hepatoma cells (from the earlier reading)
# human Edg-4 receptor [1] = test: Calcium mobilization assay (FLIPR), HTC rat hepatoma cells transfected with human Edg-4; format: cell-based; conditions: Edg-4 relative to other Edg receptors; for Fold Selectivity for Edg-4 (EC50): agonists
# Excerpt: (§1) LPA receptors such as Edg-4, couple to calcium effector pathways, and result in increases in intracellular calcium following receptor activation (An et al., Molecular Pharmacology, 54:881-888, 1998, incorporated herein by reference). This biological response lends itself to a very efficient, high-throughput screen using a Fluorescence Imaging Plate Reader (FLIPR; Molecular Devices, Sunnyvale, Calif.). The FLIPR system is a real-time, cell-based assay system with continuous fluorescence detection using a cooled CCD camera. The FLIPR system was used to developing an Edg-4 receptor screen. Rat hepatoma cells stably expressing Edg-4 receptor were plated on 384-well plates and loaded with a calcium dye loading kit (Molecular Devices, Sunnyvale, Calif.) for 1 hour at room temperature. Cells were then placed on the FLIPR^354 (Molecular Devices, Sunnyvale, Calif.) and excited by an argon laser at 488 nm. The data for the entire 384-well plate was updated every second. An integrated robotic pipettor allowed for simultaneous compound addition into each individual well in the plate.
# human Edg-4 receptor [2] = target: T4, human Edg-4 receptor (Homo sapiens, UniProt Q9HBW0); test: as above; format: cell-based; conditions: for EC50: agonist
# T4 construct: IC50 Edg-4; other: agonist, calcium mobilization; potency relative to compound 101; calcium response (agonist)
# Excerpt: as §1
# Edg-7 = target: T5, Edg-7 (Homo sapiens, UniProt Q9UBY5); test: Calcium mobilization assay (FLIPR), HTC cells expressing Edg 7; format: cell-based; conditions: calcium mobilization; for EC50: agonist
# T5 construct: expressed in transfected cells; host or cells: HTC rat hepatoma cells (from the earlier reading)
# T5 sequence (Q9UBY5 1-353): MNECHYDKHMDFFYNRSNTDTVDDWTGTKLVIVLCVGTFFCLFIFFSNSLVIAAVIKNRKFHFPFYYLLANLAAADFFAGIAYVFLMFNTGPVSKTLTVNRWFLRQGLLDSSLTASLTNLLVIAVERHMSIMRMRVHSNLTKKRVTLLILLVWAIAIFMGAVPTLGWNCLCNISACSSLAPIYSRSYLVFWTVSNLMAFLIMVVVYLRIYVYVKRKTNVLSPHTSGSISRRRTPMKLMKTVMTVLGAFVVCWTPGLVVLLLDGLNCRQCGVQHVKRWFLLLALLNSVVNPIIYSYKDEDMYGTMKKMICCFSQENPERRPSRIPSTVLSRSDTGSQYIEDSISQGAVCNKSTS
# Edg-8 = target: T6, Edg-8 (Homo sapiens, UniProt Q9H228); test: Calcium mobilization assay (FLIPR), HTC cells expressing Edg 8; format: cell-based; conditions: for EC50: agonist
# T6 construct: expressed in transfected cells; host or cells: HTC rat hepatoma cells (from the earlier reading)
# [3] = Calcium mobilization assay, Null; format: cell-based; conditions: agonist
# Excerpt: as §1
# Edg-5 = target: T7, Edg-5 (Homo sapiens, UniProt O95136); test: Calcium mobilization assay (FLIPR), HTC cells expressing Edg 5; format: cell-based; conditions: for EC50: agonist
# T7 construct: expressed in transfected cells; host or cells: HTC rat hepatoma cells (from the earlier reading)
# Edg-6 = target: T8, Edg-6 (Homo sapiens, UniProt O95977); test: Calcium mobilization assay (FLIPR), HTC cells expressing Edg 6; format: cell-based; conditions: for EC50: agonist
# T8 construct: expressed in transfected cells; host or cells: HTC rat hepatoma cells (from the earlier reading)
# T8 sequence (O95977 1-384): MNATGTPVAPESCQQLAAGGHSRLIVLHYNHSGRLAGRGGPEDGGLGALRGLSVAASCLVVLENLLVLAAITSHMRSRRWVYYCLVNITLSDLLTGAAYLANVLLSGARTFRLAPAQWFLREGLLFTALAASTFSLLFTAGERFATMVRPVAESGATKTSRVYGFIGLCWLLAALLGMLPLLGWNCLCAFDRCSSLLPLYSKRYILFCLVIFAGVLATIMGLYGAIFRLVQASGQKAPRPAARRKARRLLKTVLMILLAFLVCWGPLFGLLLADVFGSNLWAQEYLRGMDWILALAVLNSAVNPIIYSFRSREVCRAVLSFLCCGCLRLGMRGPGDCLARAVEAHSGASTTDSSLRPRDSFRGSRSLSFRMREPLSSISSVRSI
# rat Edg-4 receptor = test: LPA induced calcium mobilization, HTC cells transfected with pooled rat Edg-4 clones; format: cell-based; conditions: pooled HTC population, FIG. 12
# Excerpt: as §1
# mouse Edg-4 receptor = target: T9, mouse Edg-4 receptor (Mus musculus, UniProt Q9JL06); test: LPA induced calcium mobilization, HTC cells transfected with pooled mouse Edg-4 clones; format: cell-based; conditions: pooled HTC population, FIG. 13
# T9 construct: expressed in transfected cells; host or cells: HTC rat hepatoma cells, pooled population
# Excerpt: as §1
# T3 sequence (P21453 whole entry): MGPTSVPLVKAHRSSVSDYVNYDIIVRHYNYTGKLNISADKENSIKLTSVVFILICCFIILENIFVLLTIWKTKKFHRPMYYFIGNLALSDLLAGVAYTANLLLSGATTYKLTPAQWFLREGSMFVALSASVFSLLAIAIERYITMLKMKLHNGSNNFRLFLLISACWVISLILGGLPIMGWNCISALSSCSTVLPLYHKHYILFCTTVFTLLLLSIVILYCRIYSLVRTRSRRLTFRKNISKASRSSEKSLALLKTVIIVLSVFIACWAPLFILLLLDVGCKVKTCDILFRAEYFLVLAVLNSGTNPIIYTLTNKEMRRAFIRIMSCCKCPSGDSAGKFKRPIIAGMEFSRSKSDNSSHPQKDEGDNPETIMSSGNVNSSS
# T6 sequence (Q9H228 whole entry): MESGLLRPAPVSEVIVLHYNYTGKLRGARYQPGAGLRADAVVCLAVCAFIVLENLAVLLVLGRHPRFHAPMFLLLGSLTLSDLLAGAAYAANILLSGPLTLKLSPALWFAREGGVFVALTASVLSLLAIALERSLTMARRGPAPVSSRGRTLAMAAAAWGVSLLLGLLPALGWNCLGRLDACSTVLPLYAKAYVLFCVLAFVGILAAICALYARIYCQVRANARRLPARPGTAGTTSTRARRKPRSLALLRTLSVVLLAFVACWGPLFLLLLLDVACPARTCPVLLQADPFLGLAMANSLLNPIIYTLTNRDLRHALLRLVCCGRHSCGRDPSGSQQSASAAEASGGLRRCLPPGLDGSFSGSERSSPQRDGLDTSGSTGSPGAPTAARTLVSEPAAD
# T7 sequence (O95136 whole entry): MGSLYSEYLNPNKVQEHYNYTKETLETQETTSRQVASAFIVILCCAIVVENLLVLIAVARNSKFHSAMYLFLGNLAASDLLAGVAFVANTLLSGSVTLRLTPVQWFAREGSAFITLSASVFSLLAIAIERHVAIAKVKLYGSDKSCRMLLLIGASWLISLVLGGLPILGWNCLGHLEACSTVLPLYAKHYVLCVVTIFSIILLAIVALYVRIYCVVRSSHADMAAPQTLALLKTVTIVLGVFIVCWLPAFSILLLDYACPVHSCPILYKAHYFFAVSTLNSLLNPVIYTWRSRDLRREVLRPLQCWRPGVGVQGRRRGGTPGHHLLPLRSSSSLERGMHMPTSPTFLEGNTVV
# T4 sequence (Q9HBW0 1-340 limits assumed): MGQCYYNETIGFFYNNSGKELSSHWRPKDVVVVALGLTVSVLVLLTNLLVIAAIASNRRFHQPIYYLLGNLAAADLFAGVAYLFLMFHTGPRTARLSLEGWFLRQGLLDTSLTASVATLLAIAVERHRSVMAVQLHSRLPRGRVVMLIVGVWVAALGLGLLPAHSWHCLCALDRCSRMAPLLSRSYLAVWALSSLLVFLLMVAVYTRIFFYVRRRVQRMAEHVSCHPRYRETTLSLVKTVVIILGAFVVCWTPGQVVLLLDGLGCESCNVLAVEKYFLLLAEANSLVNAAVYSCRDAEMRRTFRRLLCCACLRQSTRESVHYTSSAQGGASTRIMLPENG
# T2 sequence (Q99500 whole entry): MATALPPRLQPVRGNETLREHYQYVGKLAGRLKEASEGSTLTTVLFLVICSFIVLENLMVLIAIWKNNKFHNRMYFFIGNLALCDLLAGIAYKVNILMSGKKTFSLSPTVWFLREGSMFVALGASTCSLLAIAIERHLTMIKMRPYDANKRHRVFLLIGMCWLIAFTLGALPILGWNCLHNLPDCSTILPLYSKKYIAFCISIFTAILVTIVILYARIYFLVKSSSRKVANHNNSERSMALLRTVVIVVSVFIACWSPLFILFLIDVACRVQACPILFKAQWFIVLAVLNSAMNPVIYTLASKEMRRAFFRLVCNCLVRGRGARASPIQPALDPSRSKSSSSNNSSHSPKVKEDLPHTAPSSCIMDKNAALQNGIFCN
# T1 sequence (Q92633 whole entry): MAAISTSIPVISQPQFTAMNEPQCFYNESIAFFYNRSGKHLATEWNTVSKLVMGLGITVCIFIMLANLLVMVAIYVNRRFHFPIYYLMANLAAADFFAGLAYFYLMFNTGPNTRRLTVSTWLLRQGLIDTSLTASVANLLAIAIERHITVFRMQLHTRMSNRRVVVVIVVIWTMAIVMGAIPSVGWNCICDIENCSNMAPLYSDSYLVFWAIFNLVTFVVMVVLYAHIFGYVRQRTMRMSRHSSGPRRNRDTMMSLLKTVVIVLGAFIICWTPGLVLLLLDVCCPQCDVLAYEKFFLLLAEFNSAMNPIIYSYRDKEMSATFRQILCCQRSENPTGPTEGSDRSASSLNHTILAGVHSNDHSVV
# T9 sequence (Q9JL06 whole entry): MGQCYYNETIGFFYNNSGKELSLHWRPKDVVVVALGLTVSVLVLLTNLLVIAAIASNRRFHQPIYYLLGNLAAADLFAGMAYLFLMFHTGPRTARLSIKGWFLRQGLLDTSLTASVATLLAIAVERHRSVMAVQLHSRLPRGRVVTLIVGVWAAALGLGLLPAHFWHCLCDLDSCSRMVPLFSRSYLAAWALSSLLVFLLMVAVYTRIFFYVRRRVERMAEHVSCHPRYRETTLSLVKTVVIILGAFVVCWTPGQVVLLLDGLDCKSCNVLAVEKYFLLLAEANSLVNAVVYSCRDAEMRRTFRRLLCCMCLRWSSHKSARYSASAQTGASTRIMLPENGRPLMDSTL
Structure (SMILES),EC50 (Edg-2) [µM],EC50 (Edg-3) [µM],EC50 (Edg-1) [µM],Fold Selectivity for Edg-4 (EC50) (human Edg-4 receptor [1]),EC50 (human Edg-4 receptor [2]; calcium mobilization) [µM],EC50 (Edg-7) [µM],EC50 (Edg-8) [µM],EC50 [3] [µM],EC50 (Edg-5) [µM],EC50 (Edg-6) [µM],also measured
"COc1cccc(-c2cc(NC(=O)CC(=O)C(F)(F)F)[nH]n2)c1 [Compound 113, 4,4,4-trifluoro-N-[5-(3-methoxy-phenyl)-2H-pyrazol-3-yl]-3-oxo-butyramide]",,,,,,,,,,,"inhibition of LPA-induced calcium mobilization, human Edg-4 (human Edg-4 receptor [2]; clonal HTC cell line, FIG. 11): dose dependent inhibition; inhibition of LPA-induced calcium mobilization, rat Edg-4 (rat Edg-4 receptor): dose dependent inhibition; inhibition of LPA-induced calcium mobilization, mouse Edg-4 (mouse Edg-4 receptor): dose dependent inhibition"
"O=C1NN=C(c2ccccc2)C(c2c[nH]c3ccccc23)N1 (stereo not drawn) [Compound 121, 5-(1H-Indol-3-yl)-6-phenyl-4,5-dihydro-2H-[1,2,4]triazin-3-one]",,,,,,,,,,,"IC50 (Edg-2; inhibition): > 20 µM; IC50 (Edg-3; inhibition): > 20 µM; IC50 (Edg-1; inhibition): > 20 µM; Fold-selectivity for Edg-4 (IC50) (human Edg-4 receptor [1]; antagonists): >5.6; IC50 (human Edg-4 receptor [2]; inhibition, calcium mobilization): 3.6 µM; IC50 (Edg-7; inhibition): > 20 µM; IC50 (Edg-8; inhibition): > 20 µM; IC50 (Edg-5; inhibition): > 20 µM; IC50 (Edg-6; inhibition): > 20 µM"
"O=C1NN=C(c2ccccc2)C(c2c[nH]c3ccccc23)N1 (single isomer, unassigned; (+)) [(+)-121, (+)-5-(1H-Indol-3-yl)-6-phenyl-4,5-dihydro-2H-[1,2,4]triazin-3-one]",,,,,,,,,,,melting point: 281 °C

# Continued, in another order:
EC50 (Edg-2) [µM],EC50 (Edg-3) [µM],EC50 (Edg-1) [µM],Fold Selectivity for Edg-4 (EC50) (human Edg-4 receptor [1]),EC50 (human Edg-4 receptor [2]; calcium mobilization) [µM],EC50 (Edg-7) [µM],EC50 (Edg-8) [µM],EC50 [3] [µM],EC50 (Edg-5) [µM],EC50 (Edg-6) [µM],Structure (SMILES),also measured
> 25,> 25,> 25,>2.5,9.9,> 25,> 25,> 25,> 25,> 25,"FC(F)(F)c1ccc2nnc(-c3c(Cl)cccc3Cl)n2c1 [Compound 131, 3-(2,6-dichlorophenyl)-6-trifluoromethyl-[1,2,4]triazolo [4,3-a]pyridine]",
> 25,> 25,> 25,>4.6,5.4,> 25,> 25,> 25,> 25,> 25,"FC(F)(F)c1ccc2nnc(-c3cccc(Cl)c3Cl)n2c1 [Compound 129, 3-(2,3-dichlorophenyl)-6-trifluoromethyl[1,2,4]triazolo[4,3-a]pyridine]",
